From PMC4706797 (Journal of pharmaceutical sciences, 2015)
Values belong to the compound of their own block, whether it stands above or below them.

Experiments:
MDA-MB-231 cells = assay: In vitro migration; format: cell-based
survivin = assay: Western blot, survivin expression in MDA-MB-231 cells; format: cell-based; conditions: MDA-MB-231, DTX 0.1 μM and/or 1 μM PPL, 48 hr, densitometry
MDA-MB-468 = assay: Cytotoxicity assay; format: cell-based; conditions: Homo sapiens, MDA-MB-468, 48 h, read-out: IC50 (μM) DTX only
p53 = assay: Western blot, p53 expression in MDA-MB-231 cells; format: cell-based; conditions: MDA-MB-231, DTX 0.1 μM and/or 1 μM PPL, 48 hr, densitometry
MDA-MB-231 = assay: Cytotoxicity assay; format: cell-based; conditions: Homo sapiens, MDA-MB-231, 48 h, read-out: IC50 (μM) DTX only
HCC70 = assay: Cytotoxicity assay; format: cell-based; conditions: Homo sapiens, HCC70, 48 h, read-out: IC50 (μM) DTX only
Bcl-2 = assay: Western blot, Bcl-2 expression in MDA-MB-231 cells; format: cell-based; conditions: MDA-MB-231, DTX 0.1 μM and/or 1 μM PPL, 48 hr, densitometry
cyclin D1 = assay: Western blot, cyclin D1 expression in MDA-MB-231 cells; format: cell-based; conditions: MDA-MB-231, DTX 0.1 μM and/or 1 μM PPL, 48 hr, densitometry
HS578T = assay: Cytotoxicity assay; format: cell-based; conditions: Homo sapiens, Hs-578T, 48 h, read-out: IC50 (μM) DTX only
HCC1806 = assay: Cytotoxicity assay; format: cell-based; conditions: Homo sapiens, HCC1806, 48 h, read-out: IC50 (μM) DTX only
[1] = In vivo pharmacokinetic in rats; design: species or system Sprague Dawley rats
[2] = test system: triple negative breast cancer (TNBC) cell lines; assay: Cytotoxicity in TNBC cell lines; format: cell-based
P-gp = P-gp (Homo sapiens, UniProt P08183); assay: Caco-2 uptake study of P-gp substrates; conditions: Caco-2 cells, 50 μM PPL or verapamil
Chain of P-gp (P08183 whole entry): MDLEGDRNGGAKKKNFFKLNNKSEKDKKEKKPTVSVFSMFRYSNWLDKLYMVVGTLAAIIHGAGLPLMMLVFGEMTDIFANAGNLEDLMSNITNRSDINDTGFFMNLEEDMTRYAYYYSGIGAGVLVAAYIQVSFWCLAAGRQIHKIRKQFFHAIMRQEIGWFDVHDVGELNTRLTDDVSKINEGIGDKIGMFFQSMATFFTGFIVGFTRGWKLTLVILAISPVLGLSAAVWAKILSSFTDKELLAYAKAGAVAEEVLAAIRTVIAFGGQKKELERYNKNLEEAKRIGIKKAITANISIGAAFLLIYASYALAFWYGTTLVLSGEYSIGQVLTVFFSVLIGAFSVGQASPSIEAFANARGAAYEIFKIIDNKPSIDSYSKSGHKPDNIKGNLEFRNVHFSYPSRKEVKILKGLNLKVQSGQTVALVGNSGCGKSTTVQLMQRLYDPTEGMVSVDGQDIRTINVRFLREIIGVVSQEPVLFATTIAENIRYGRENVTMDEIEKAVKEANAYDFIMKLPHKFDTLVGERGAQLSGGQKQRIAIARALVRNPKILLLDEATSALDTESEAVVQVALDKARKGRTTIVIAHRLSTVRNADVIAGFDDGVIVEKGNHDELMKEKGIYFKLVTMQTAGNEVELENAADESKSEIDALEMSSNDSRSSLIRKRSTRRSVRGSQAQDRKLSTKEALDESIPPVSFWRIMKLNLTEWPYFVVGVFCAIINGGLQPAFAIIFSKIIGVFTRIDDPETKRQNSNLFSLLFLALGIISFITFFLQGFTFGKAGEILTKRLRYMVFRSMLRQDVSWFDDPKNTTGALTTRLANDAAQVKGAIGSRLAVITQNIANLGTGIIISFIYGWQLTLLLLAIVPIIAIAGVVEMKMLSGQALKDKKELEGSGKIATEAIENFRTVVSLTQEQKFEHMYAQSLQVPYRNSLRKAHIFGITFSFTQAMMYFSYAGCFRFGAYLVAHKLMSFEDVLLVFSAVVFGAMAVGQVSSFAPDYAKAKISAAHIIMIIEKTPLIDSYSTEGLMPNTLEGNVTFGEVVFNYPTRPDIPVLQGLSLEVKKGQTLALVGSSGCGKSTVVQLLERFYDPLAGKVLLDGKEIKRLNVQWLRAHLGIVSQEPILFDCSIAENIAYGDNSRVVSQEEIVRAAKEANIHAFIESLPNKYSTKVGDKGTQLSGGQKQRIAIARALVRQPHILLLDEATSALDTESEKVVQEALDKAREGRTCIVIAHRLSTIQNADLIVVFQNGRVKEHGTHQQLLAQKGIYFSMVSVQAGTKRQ

CYP3A4 = conditions: 50 μM PPL or CYA, 5 μM TST, human liver microsomes, over 60 min
[3] = oral co-administration with the taxane; cited from earlier work
[4] = Sprague Dawley, rat, plasma, iv, 5 mg/kg

Absolute BA ([1]; SD rats, oral DTX 10 mg/kg (PPL 50 mg/kg where co-administered) vs IV 5 mg/kg): 9.26%
time after which DTX plasma concentration was non-detectable ([1]; SD rats, oral administration): 8 h
AUC [1, 4]: 5.29 ± 1.1 µg·h/mL
Cmax [1, 4]: 6.1 ± 1.7 µg/mL
MRT [1, 4]: 1.99 ± 0.36 h
half-life [1, 4]: 6.67 ± 1.6 h
SMILES: CC(=O)O[C@@]12CO[C@@H]1C[C@H](O)[C@@]1(C)C(=O)[C@H](O)C3=C(C)[C@@H](OC(=O)[C@H](O)[C@@H](NC(=O)OC(C)(C)C)c4ccccc4)C[C@@](O)([C@@H](OC(=O)c4ccccc4)[C@H]21)C3(C)C [DTX, Docetaxel]
percent bridging of scratch area (MDA-MB-231 cells; MDA-MB-231, 48 h, 0.1 μM DTX (combination with 1 μM PPL)): 49.3%
percent bridging of scratch area (MDA-MB-231 cells; MDA-MB-231, 48 h, 0.4 μM DTX (combination with 1 μM PPL)): 33.8%
survivin expression down regulated compared to control (survivin): 1.03 fold
IC50 (MDA-MB-468): 0.36 ± 0.069 µM
increase in expression of p53 compared to untreated control (p53): 1.2 fold
IC50 (MDA-MB-231): 0.458 ± 0.081 µM
IC50 (HCC70): 0.019 ± 0.008 µM
Bcl-2 expression reduced compared to untreated control (Bcl-2): 2.59 fold
cyclin D1 relative expression reduced compared to untreated control (cyclin D1): 0.8 fold
IC50 (HS578T): 0.077 ± 0.013 µM
IC50 (HCC1806): 0.0022 ± 0.001 µM

SMILES: COc1cc(/C=C/C(=O)N2CCC=CC2=O)cc(OC)c1OC [PPL, Piperlongumine]
percent bridging of migration area (MDA-MB-231 cells; MDA-MB-231, 48 h, 1 μM PPL alone): comparable to control
anti-migration effect (MDA-MB-231 cells; PPL at concentration below 4 μM): no anti-migration effect
cytotoxicity ([2]; PPL at 1 μM): no cytotoxcity
cell killing ([2]; PPL below 4 μM): not shown a significant cell killing
survivin expression down regulated compared to control (survivin): 1.19 fold
increase in expression of p53 compared to untreated control (p53): 1.1 fold
intracellular uptake of R123 (green fluorescence intensity) (P-gp; 1 μM rhodamine 123, 90 min, qualitative): green fluorescence intensity was higher
higher intracellular accumulation (uptake) of DTX (P-gp; 5 μM DTX, 90 min): 1.34 fold
reduction in TST metabolism (CYP3A4): ~50%
Bcl-2 expression reduced compared to untreated control (Bcl-2): 2.74 fold
cyclin D1 relative expression reduced compared to untreated control (cyclin D1): 2.10 fold

SMILES: O=C(/C=C/C=C/c1ccc2c(c1)OCO2)N1CCCCC1 [piperine]
anticancer and synergistic effect with docetaxel ([2]; in vitro studies, data not shown): did not show potent anticancer and synergistic effect

SMILES: CC(C)c1nc(CN(C)C(=O)N[C@H](C(=O)N[C@@H](Cc2ccccc2)C[C@H](O)[C@H](Cc2ccccc2)NC(=O)OCc2cncs2)C(C)C)cs1 [ritonavir]
increase in plasma concentrations of docetaxel [3]: 7.3 fold
increase in plasma concentrations of paclitaxel [3]: 2.5 fold
